Results published in ChEMBL document CHEMBL1132329, “Synthesis and histone deacetylase inhibitory activity of new benzamide derivatives” (J Med Chem, 1999).

Target: Histone deacetylase
Assay: Inhibitory activity against partially purified histone deacetylase of human leukemia K562 cells.
Type: cell-based

| IC50 [µM] | Structure (SMILES) |
| --- | --- |
| 4.6 | COc1ccc(N)c(NC(=O)c2ccc(CNC(=O)OCc3cccnc3)cc2)c1 |
| > 100 | O=C(NCc1ccc(C(=O)Nc2ccccc2)cc1)OCc1cccnc1 |
| > 100 | Nc1ccc(NC(=O)c2ccc(CNC(=O)OCc3cccnc3)cc2)cc1 |
| 2.8 | Cc1ccc(N)c(NC(=O)c2ccc(CNC(=O)OCc3cccnc3)cc2)c1 |
| > 100 | Cc1ccc(NC(=O)c2ccc(CNC(=O)OCc3cccnc3)cc2)c(N)c1 |
| 40 | Nc1cc(Cl)ccc1NC(=O)c1ccc(CNC(=O)OCc2cccnc2)cc1 |
| 44 | COc1ccc(NC(=O)c2ccc(CNC(=O)OCc3cccnc3)cc2)c(N)c1 |
| 7.7 | Nc1ccc(Cl)cc1NC(=O)c1ccc(CNC(=O)OCc2cccnc2)cc1 |
| 2.2 | O=C(NCc1ccc(C(=O)Nc2ccccc2O)cc1)OCc1cccnc1 |
| 6 | Nc1ccc(F)cc1NC(=O)c1ccc(CNC(=O)OCc2cccnc2)cc1 |
| > 100 | Nc1cccc(NC(=O)c2ccc(CNC(=O)OCc3cccnc3)cc2)c1 |
| > 100 | CC(=O)Nc1ccccc1NC(=O)c1ccc(CNC(=O)OCc2cccnc2)cc1 |
| > 100 | Cc1cccc(NC(=O)c2ccc(CNC(=O)OCc3cccnc3)cc2)c1N |
| 140 | CCCC(=O)[O-].[Na+] [SODIUM BUTYRATE] |
